Earlier results, collected in patent US8921533B2, “Glycosylated valproic acid analogs and uses thereof” (Chromatin Technologies, priority 2011, dated 2014).
Like-named read-outs stand apart in the source and are kept apart here.

Test system: sensitised guinea pig tracheal rings
Settings: also contraction induced by histamine, 5-hydroxytryptamine and carbachol

CCCC(=O)[O-].[Na+] [sodium butyrate]
inhibition of antigen-induced contraction of tracheal rings (1 mM): weak inhibitors

CCCC(CCC)C(=O)[O-].[Na+] [sodium valproate]
inhibition of antigen-induced contraction of tracheal rings (100 microM): weak inhibitors
